Results as given in patent US5916914A, “Compounds and method of treating psychosis and schizophrenia” (priority 1997, dated 1999).
Structures can show the parent of a compound that is named as a salt.

How the values were obtained:
[1] = molecular target: human dopamine D2 (Long form) receptors (Homo sapiens, UniProt P14416); assay: biochemical; assay type: binding
Source text: (§1) A cell line expressing human dopamine D2 (Long form) receptors was purchased from Oregon Health Sciences University, Portland, Oreg. The D2 receptor cDNA was subcloned into an expression vector, pRc/CMV. The plasmids were transfected by electroporation into CHO K1 cells. A single stable transfectant, resistant to the antibiotic G418, was isolated and selected for use in the binding studies. For D4 binding, CHO K1 cells stably transfected to express the human recombinant dopamine D4.2 receptor subtype, as described by Shih, et al., "The expression and functional characterization of human dopamine D4.2 receptor in CHO K1 cells," Soc. Neurosci., 1995;21 (Part 1):621 were used.
(§2) CHO K1 cells expressing either human D2 and D4.2 receptors were grown in 162 cm^2 culture flasks in F12 medium (Gibco Laboratories, Grand Island, N.Y.) supplemented with 10% fetal bovine serum (FBS, Hyclone, Logan, Utah) in an atmosphere of 5% CO2 /95% air at 37 EC. Cells were grown until confluent, after which growth medium was removed and replaced with 0.02% ethylene diamine tetracetate (EDTA) in a phosphate-buffered saline solution (Sigma Chemical Co., St. Louis, Mo.) and scraped from the flasks. The cells were centrifuged at about 1000×g for 10 minutes at 4° C. and then resuspended in TEM buffer (25 mM Tris-HCL, pH 7.4, 5 mM EDTA, and 6 mM MgCl2) for D2 or the D4.2 buffer (50 mM Tris-HCl, pH 7.4, 5 mM EDTA, 1.5 mM CaCl2, 5 mM KCl, and 120 mM NaCl) and homogenized. The membranes were pelleted by centrifugation at 20000×g at 4° C. for 20 minutes. Then the pellets were resuspended in appropriate buffer at 1 mL/flask and stored at -70° C. until used in the receptor binding assay.
(§3) After 60 minutes incubation at 25° C., the incubations were terminated by rapid filtration through Whatmann GF/B glass fibre filters (soaked for 1 hour in 0.5% polyethylenimine) on a cell harvester, with three washes of 1 mL ice-cold buffer. Individual filter disks containing the bound ligand were placed in counting vials with 4 mL of scintillation fluid (Ready Gel, Beckman Instrument, Inc., Fullerton, Calif.) and then counted in a Beckman LS-6800 liquid scintillation counter at an efficiency of 45%. Nonspecific binding was defined in presence of 1 mM of haloperidol.
(§4) Saturation and competition binding data were analyzed using an iterative nonlinear least square curve-fitting Ligand program. […] Experimental compounds were made up as stock solutions in dimethyl sulfoxide (DMSO). […] Each observation was carried out in triplicate. To allow these calculations, Kd values were measured for the interaction of various ligands with the receptor. […]

[2] = molecular target: T1, human recombinant dopamine D4.2 receptor (Homo sapiens, UniProt P21917, DEL265-296); assay: Receptor binding assay, D4.2 ([^3 H]spiperone)
T1 construct: expressed in transfected cells
T1 sequence (P21917 with tags, fused parts or gaps DEL265-296): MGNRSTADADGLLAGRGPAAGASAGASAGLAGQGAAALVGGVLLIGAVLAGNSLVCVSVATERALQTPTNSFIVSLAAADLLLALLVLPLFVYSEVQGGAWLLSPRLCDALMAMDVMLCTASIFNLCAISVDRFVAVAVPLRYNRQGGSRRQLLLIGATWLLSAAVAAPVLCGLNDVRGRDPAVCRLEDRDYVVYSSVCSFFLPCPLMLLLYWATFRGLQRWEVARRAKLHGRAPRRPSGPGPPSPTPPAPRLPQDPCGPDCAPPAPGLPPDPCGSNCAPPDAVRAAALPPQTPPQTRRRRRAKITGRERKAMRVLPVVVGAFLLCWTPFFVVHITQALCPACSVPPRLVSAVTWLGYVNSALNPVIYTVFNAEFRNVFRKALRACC
Source text: as §1, §2, §3, §4

Chain of human dopamine D2 (Long form) receptors (P14416 whole entry): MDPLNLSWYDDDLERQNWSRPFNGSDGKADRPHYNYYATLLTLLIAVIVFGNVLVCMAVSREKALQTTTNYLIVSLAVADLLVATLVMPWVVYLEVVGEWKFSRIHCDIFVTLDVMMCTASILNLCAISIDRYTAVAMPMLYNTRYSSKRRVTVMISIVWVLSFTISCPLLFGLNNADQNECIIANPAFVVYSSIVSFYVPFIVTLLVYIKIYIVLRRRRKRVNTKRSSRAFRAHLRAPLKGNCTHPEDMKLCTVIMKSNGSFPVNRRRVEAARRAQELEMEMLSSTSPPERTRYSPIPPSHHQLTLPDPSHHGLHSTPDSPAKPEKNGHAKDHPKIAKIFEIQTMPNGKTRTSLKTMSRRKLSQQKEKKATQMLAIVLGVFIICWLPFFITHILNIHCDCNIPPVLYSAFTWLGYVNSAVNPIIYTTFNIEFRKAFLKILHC

| SMILES | Ki [1] | Ki [2] |
| --- | --- | --- |
| c1ccc(OCCCNCCOc2ccc3ncccc3c2)cc1 [Example 2a, (3-Phenoxy-propyl)-[2-quinolin-6-yloxy)-ethyl]-amine hydrochloride] | 578 nM | 12.8 nM |
| O=c1ccc2ccc(OCCNCCCOc3ccccc3)cc2o1 [Example 2c, 7-[2-(3-Phenoxy-propylamino)-ethoxy]-chromen-2-one hydrochloride] | 249 nM | 1.6 nM |
| c1ccc(OCCCNCCOc2ccc3oc4ccccc4c3c2)cc1 [Example 2d, [2-(Dibenzofuran-2-yloxy)-ethyl]-(3-phenoxypropyl)-amine hydrochloride] |  | 78.7 nM |
| Cc1cc(=O)oc2cc(OCCNCCCOc3ccccc3)ccc12 [Example 3, 4-Methyl-7-[2-(3-phenoxy-propylamino)-ethoxy]-chromen-2-one Hydrochloride] | 231 nM | 1.9 nM |
| Cc1cc(=O)oc2ccc(OCCNCCCOc3ccccc3)cc12 [Example 3a, 4-Methyl-6-[2-(3-phenoxy-propylamino)-ethoxy]-chromen-2-one hydrochloride] |  | 70.2 nM |
| c1ccc(OCCCNCCOc2ccc3occc3c2)cc1 [Example 3b, [2-(Benzofuran-5-yloxy)-ethyl]-(3-phenoxy-propyl)-amine hydrochloride] | 502 nM | 1.2 nM |
| O=c1ccc2ccc(CNCCNc3ccc(CO)c(Cl)c3)cc2o1 [Example 4a, 7-{[2-(3-Chloro-4-hydroxymethyl-phenylamino)-ethylamino]-methyl}-chromen-2-one] |  | 95 nM |
| O=c1ccc2ccc(CNCCNc3cccc(Cl)c3)cc2o1 [Example 4d, 7-{[2-(3-Chloro-phenylamino)-ethylamino]-methyl}-chromen-2-one dihydrochloride] |  | 42 nM |
| O=c1ccc2cc(CNCCNc3ccccc3)ccc2o1 [Example 4g, 6-[(2-Phenylamino-ethylamino)-methyl]-chromen-2-one] |  | 311 nM |
| O=c1ccc2ccc(CNCCCNc3ccccc3)cc2o1 [Example 4i, 7-[(3-Phenylamino-propylamino)-methyl]-chromen-2-one] |  | 31 nM |
| O=c1ccc2cc(CNCCOc3ccccc3)ccc2o1 [Example 4j, 6-[(2-Phenoxy-ethylamino)-methyl]-chromen-2-one hydrochloride] |  | 64 nM |
| Cc1ccc(OCCNCc2ccc3oc(=O)ccc3c2)cc1 [Example 4k, 6-[(2-p-Tolyloxy-ethylamino)-methyl]-chromen-2-one] | 5880 nM | 23.8 nM |
| O=c1ccc2cc(CNCCOc3ccc(Cl)cc3)ccc2o1 [Example 4l, 6-{[2-(4-Chloro-phenoxy)-ethylamino]-methyl}-chromen-2-one] | 4870 nM | 13.5 nM |
| O=c1ccc2ccc(CNCCOc3ccccc3)cc2o1 [Example 4m, 7-[(2-Phenoxy-ethylamino)-methyl]-chromen-2-one] |  | 43 nM |
| Cc1ccc(OCCNCc2ccc3ccc(=O)oc3c2)cc1 [Example 4n, 7-[(2-p-Tolyloxy-ethylamino)-methyl]-chromen-2-one] | 195 nM | 3.9 nM |
| O=c1ccc2ccc(CNCCOc3ccc(Cl)cc3)cc2o1 [Example 4o, 7-{[2-(4-Chloro-phenoxy)-ethylamino]-methyl}-chromen-2-one] | 286 nM | 9.5 nM |
| O=c1ccc2ccc(CNCCSc3ccccc3)cc2o1 [Example 4p, 7-[(2-Phenylsulfanyl-ethylamino)-methyl]-chromen-2-one hydrochloride] |  | 394 nM |
| O=c1ccc2ccc(CNCCCc3ccccc3)cc2o1 [Example 4q, 7-[(3-Phenyl-propylamino)-methyl]-chromen-2-one] |  | 60 nM |
| O=c1ccc2ccc(CNCCCOc3ccc(Cl)cc3)cc2o1 [Example 4r, 7-{[3-(4-Chloro-phenoxy)-propylamino]-methyl}-chromen-2-one] |  | 92 nM |
| Cc1ccc(OCCCNCc2ccc3ccc(=O)oc3c2)cc1 [Example 4s, 7-[(3-p-Tolyloxy-propylamino)-methyl]-chromen-2-one] |  | 234 nM |
| O=c1ccc2cc(CNCCCOc3ccccc3)ccc2o1 [Example 4t, 6-[(3-Phenoxy-propylamino)-methyl]-chromen-2-one] | 1070 nM | 20 nM |
